For experiment [1], the system named is C. elegans wild-type Bristol N2. Description: Lifespan of wild-type C. elegans. It counts as in vivo. The note with it: for Mean Life Extension (%): Genotype: N2, fed live E. coli (OP50); for median lifespan increased by: FIG. 5; for Lifespan extension compared to control (%): 50 μM UA vs 1% DMSO. How it is done: C. elegans strains were cultured at 20° C. on nematode growth media (NGM) agar plates seeded with E. coli strain OP50. Strain used was wild-type Bristol N2 provided by the Caenorhabditis Genetics Center (University of Minnesota). All Compounds were dissolved in DMSO. Animals were exposed to compounds from eggs on plates seeded with live OP50 bacteria. Control plates were prepared with the corresponding concentrations of DMSO (0.1%). For lifespan tests, worms were observed using a Nikon SMZ1500 stereomicroscope (Nikon, Melville, NY, USA). […] After 3 days (corresponding to day 0), newly developed 60 to 100 L4 worms were used per condition, scored and transferred to fresh plates every 3 days starting from day 1 (young adult worms). All lifespan experiments were performed at 20° C.
Lifespan assays were performed with (A) wild-type (N2), (B) sir-2.1(ok434) mutant, (C) aak-2(ok524), (D) daf-16(mu86), (E) eat-2(ad465) and (F) daf-2(e1370) mutant strains of C. elegans maintained during their full life on plates supplemented with either 50 μM of urolithin A or with a control treatment and seeded with OP50 bacteria. Control plates without urolithin A contained an equivalent concentration of DMSO. Worm lifespan assays were performed at 20° C.

For experiment [2], the system named is C. elegans fed bec-1 RNAi. Description: Lifespan with RNAi against bec-1. It counts as in vivo. The conditions noted are these: 50 μM; vs empty vector; FIG. 10C. How it is done:
Lifespan tests were performed as described. Mouchiroud L et al. (2011) Aging Cell 10:39-54. Briefly, worms were observed using a Nikon SMZ1500 stereomicroscope (Nikon, Melville, NY, USA). Briefly, 10 L4 worms were transferred on plates containing NGM medium with vehicle (DMSO 0.1%, final concentration) or urolithin A dissolved in DMSO (final concentration 50 μM) and seeded with E. coli RNAi clones as indicated. After 3 days (corresponding to day 0), newly developed 60-100 L4 worms were used per condition, scored and transferred to fresh plates every 3 days starting from day 1 (young adult worms). All lifespan experiments were performed at 20° C.
Survival analyses were performed using the Kaplan Meier method and the significance of differences between survival curves calculated using the log rank test. Differences between two groups were assessed using two-tailed t-tests. Analysis of variance, assessed by Bonferroni's multiple comparison test, was used when comparing more than two groups. The statistical software used was GraphPad Prism 5 (GraphPad Software, Inc.) and all p-values <0.05 were considered significant.
Gene silencing was carried out as previously described by using the RNA interference (RNAi) process. Mouchiroud L et al. (2011) Aging Cell 10:39-54. In C. elegans, RNAi is made by feeding. […]

In experiment [3] the test system is mouse C2C12 myoblasts. As to the kind of experiment: Autophagy western blot in C2C12 myoblasts. It is filed as cell-based. The conditions noted are these: 10 μM, 20 μM, and 50 μM, 16 hours. How it is done:
C2C12 myoblast were cultured in Dulbecco's modified Eagle's medium (DMEM) including 4.5 g/L glucose, 20% fetal calf serum, and 50 μg/mL gentamicin. Urolithin A was dissolved in DMSO in a stock solution of […]. Cells were treated at final concentrations of urolithin A of 10 μM, 20 μM, and 50 μM for a period 16 hours. Control cells were treated with DMSO at an equivalent final concentration for the same period and served as the untreated control.
At the end of treatment, cells were lysed with RIPA buffer and applied to SDS-PAGE and analyzed by western blot. Protein expression levels were examined for autophagy-related proteins LC3-I and LC3-II (Cell Signaling antibody #4108), p62 (Cell Signaling antibody #5114), AMPKα (Cell Signaling antibody #2603), and p-AMPKα(Cell Signaling antibody #2531). The housekeeping protein, R-actin (Cell Signaling Antibody #4967) level was measured as a loading control.
A general note: In western blotting, separated proteins are transferred to a membrane and probed.

In experiment [4] the test system is gastrocnemius muscles of aged C57BL/6J mice. As to the kind of experiment: Autophagy in skeletal muscle of aged mice. It counts as in vivo, mouse. The note with it: 50 mg/kg/day in food, 34 weeks. How it is done:
Locomotor activity may be also assessed by measuring animal movements using infrared detection. To determine the effects of urolithin A on spontaneous locomotor activity in aged animals, 16-month-old C57BL/6J mice were treated with either a standard rodent diet or a diet containing urolithin A mixed with food to reach a dosing of 50 mg/kg/day delivered to mice. Following 34 weeks of treatment with urolithin A, mice were placed in a locomotor activity monitoring system, TSE Systems. Infrared transmitters and receivers are placed in the x, y, and z axis. Interruption of the infrared beams in the x, y axis by the passage of the mouse, allows for a measurement of the horizontal movement (ambulation). Interruption of the infrared beams in the z axis by the mouse, allows for the measurement of rearing behavior. Each beam interruption results in one count being recorded. Total counts were measured for each 30 minute period over a two day period. The total counts observed during the 12 hour dark period, which corresponds to the time of highest activity in mice, were summed for each animal.
Following 34 weeks of treatment, the mice from Example 19 were sacrificed and the organs were collected. The gastrocnemius muscles were assessed for the presence of autophagy by the assessment of the change in the ratio of the autophagy markers LC3 and p62 using western blot analysis. Each lane corresponds to a muscle sample from an individual mouse. The ratio of LC3-II/LC3-I increased in the muscles of urolithin A (UA)-treated mice versus untreated mice. This was accompanied by a decrease in the levels of p62 in the muscles of UA treated versus untreated mice. These shifts in the levels of LC3 and p62 in the muscle of mice are consistent with an increase in the level of autophagy taking place.

The results in this text go back to patent publication US11931335B2, “Enhancing autophagy or increasing longevity by administration of urolithins or precursors thereof” (Amazentis SA, priority 2012, dated 2024).

Molecules are shown by their SMILES. “Also recorded” adds a separate entry of the source.

Turning to `O=c1oc2cc(O)ccc2c2ccc(O)cc12` [Urolithin A, urolithin A], the “Mean Life Extension (%)” value is on record as 27.7% in experiment [1] (dose 10 μM) and 75% in experiment [1] (dose 50 μM). For the same molecule, the “median lifespan increased by” value in experiment [1] (concentration of 50 µM) turned out to be 75%; in experiment [1] (concentration of 10 M) it was 27.7%. Besides, in experiment [1] (concentration of 50 µM, exposed from eggs, FIG. 4), the “effect on lifespan in C. elegans” value is recorded as “extended the lifespan”. For the same molecule, the “Median lifespan” value in experiment [1] (wild-type (N2), 50 μM UA) is 28 days. Also, the “Lifespan extension compared to control (%)” value is 75% in experiment [1] (wild-type (N2)) and “+75%” in experiment [1] (wild-type (N2), listed as UA). For the same molecule, the “lifespan extension by urolithin A under bec-1 RNAi” value in experiment [2] is reported as “suppressed; also recorded: totally suppress the lifespan phenotype”. Moreover, the “levels of p62” value in experiment [3] is given as “decrease”; in experiment [4] it was “decreased”; in experiment [4] (listed as UA), “decrease”. In addition, in experiment [3], the “ratio of pAMPKα/AMPKα” value is “increasing several fold”. In addition, the “ratio of LC3-II to LC3-I” value in experiment [3] (FIG. 16) is given as “dose-dependent increase”. Moreover, the “ratio of p-AMPKα/AMPKα” value in experiment [4] is on record as “increase”. In experiment [4] (FIG. 24), the “ratio of LC3-II/LC3-I” value is “increased”.
